Laboratory results: ChEMBL document CHEMBL4422673, “Discovery, synthesis and characterization of a series of (1-alkyl-3-methyl-1H-pyrazol-5-yl)-2-(5-aryl-2H-tetrazol-2-yl)acetamides as novel GIRK1/2 potassium channel activators” (Bioorg Med Chem Lett, 2019)
pEC50: −log10 of the molar value. Active and inactive are the calls of the source. The rule behind the calls is not given here.

Columns and labels:
Kir3.1/Kir3.4 [1] = biological target: T1, Kir3.1/Kir3.4 (Homo sapiens, UniProt P48544+P48549); experiment: (§1) Activation of human GIRK1/4 expressed in HEK293 cells co-expressing rat mGlu8 by thallium flux assay; format: cell-based
T1 sequence (P48549 whole entry): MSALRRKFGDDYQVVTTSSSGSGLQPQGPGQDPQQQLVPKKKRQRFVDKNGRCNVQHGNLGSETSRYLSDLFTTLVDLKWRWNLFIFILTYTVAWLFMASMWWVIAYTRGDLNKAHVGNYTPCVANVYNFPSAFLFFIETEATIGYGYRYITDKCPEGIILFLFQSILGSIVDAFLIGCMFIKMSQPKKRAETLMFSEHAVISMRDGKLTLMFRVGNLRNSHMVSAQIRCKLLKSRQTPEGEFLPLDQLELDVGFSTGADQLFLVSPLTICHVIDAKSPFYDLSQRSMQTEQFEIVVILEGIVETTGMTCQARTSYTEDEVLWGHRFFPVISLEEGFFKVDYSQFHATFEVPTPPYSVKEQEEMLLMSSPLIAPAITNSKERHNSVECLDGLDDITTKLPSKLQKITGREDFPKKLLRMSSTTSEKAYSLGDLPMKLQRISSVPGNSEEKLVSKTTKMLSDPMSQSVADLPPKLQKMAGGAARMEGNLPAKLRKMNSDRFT
T1 sequence (P48544 whole entry): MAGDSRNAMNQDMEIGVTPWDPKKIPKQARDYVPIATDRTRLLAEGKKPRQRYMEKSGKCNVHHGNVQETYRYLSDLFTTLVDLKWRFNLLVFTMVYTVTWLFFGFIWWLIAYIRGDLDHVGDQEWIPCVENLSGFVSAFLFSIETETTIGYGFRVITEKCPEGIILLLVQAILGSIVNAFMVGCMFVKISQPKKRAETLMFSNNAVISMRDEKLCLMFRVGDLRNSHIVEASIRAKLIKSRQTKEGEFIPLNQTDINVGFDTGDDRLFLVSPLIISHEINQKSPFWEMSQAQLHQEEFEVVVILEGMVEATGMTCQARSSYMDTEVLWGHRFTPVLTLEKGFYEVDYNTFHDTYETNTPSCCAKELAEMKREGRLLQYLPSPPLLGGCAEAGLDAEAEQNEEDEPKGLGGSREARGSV

[2] = biological target: Kir3.1/Kir3.2 (Homo sapiens) (UniProt P48549+P48051); experiment: Activation of human GIRK1/2 expressed in HEK293 cells co-expressing rat mGlu8 by thallium flux assay relative to control; format: cell-based
Kir3.1/Kir3.2 = biological target: T2, Kir3.1/Kir3.2 (Homo sapiens, UniProt P48051+P48549); experiment: Activation of human GIRK1/2 expressed in HEK293 cells co-expressing rat mGlu8 by thallium flux assay; format: cell-based
T2 sequence (P48549 whole entry): T1 sequence (P48549 whole entry)
T2 sequence (P48051 whole entry): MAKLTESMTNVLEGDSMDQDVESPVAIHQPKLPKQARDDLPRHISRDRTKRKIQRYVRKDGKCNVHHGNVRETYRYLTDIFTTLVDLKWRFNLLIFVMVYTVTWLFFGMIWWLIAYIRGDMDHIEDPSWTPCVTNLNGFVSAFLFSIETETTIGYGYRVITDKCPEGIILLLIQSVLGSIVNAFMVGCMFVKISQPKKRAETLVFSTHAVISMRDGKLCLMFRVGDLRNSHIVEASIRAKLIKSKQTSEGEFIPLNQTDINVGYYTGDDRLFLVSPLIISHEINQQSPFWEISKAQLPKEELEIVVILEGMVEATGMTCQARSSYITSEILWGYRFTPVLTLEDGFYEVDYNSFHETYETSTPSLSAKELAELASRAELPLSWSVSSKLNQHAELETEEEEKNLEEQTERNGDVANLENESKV

[3] = biological target: Kir3.1/Kir3.4 (Homo sapiens) (UniProt P48549+P48544); experiment: Activation of human GIRK1/4 expressed in HEK293 cells co-expressing rat mGlu8 by thallium flux assay relative to control; format: cell-based
[4] = Fraction unbound in human plasma; format: ADME, cell-free
[5] = Stability in mouse plasma; format: ADME, cell-free
[6] = Clearance in mouse liver microsomes
[7] = Clearance in human liver microsomes
Kir3.1/Kir3.4 [8] = biological target: T3, Kir3.1/Kir3.4 (Homo sapiens, UniProt P48549+P48544); experiment: as §1; format: cell-based; settings: hek293
T3 sequence (P48549 whole entry): T1 sequence (P48549 whole entry)
T3 sequence (P48544 whole entry): T1 sequence (P48544 whole entry)

Structure (SMILES)	pEC50 (Kir3.1/Kir3.4 [1])	Emax [2] [%]	pEC50 (Kir3.1/Kir3.2)	Emax [3]	Fu [4] [%]	Stability [5]	CLhep predicted [6] [mL/min/kg]	CLhep predicted [7] [mL/min/kg]	EC50 (Kir3.1/Kir3.4 [8])
Cc1cc(NC(=O)Cn2nnc(-c3ccccc3)n2)n(-c2ccccc2)n1	5.39	66	5.52	25%	–	–	–	–	–
Cc1cc(NC(=O)Cn2nnc(-c3ccccc3)n2)n(Cc2ccccc2)n1	6.07	74	6.31	48%	–	–	–	–	–
Cc1cc(NC(=O)Cn2ccc(-c3ccccc3)n2)n(C2CCCCC2)n1	6.00	88	6.29	49%	–	–	–	–	–
Cc1cc(NC(=O)Cn2cc(-c3ccccc3)cn2)n(C2CCCCC2)n1	6.46	72	7.19	52%	–	–	–	–	–
Cc1cc(NC(=O)Cn2nnc(-c3ccc(Cl)c(C)c3)n2)n(C2CCCCC2)n1	5.82	89	6.15	51%	–	–	–	–	–
Cc1cc(NC(=O)Cc2nnc(-c3ccccc3)s2)n(C2CCCCC2)n1	< 5.00	> 60	< 5.52	> 21%	–	–	–	–	–
Cc1cc(NC(=O)Cn2nnc(-c3ccccc3)n2)n(C(C)C)n1	< 5.40	107	6.25	> 96%	–	–	–	–	–
O=C(Cn1nnc(-c2ccccc2)n1)NC1CC2CCC1C2 (stereo not given)	5.56	13	5.70	7%	–	–	–	–	–
Cc1cc(NC(=O)Cn2nnc(-c3cccc(C#N)c3)n2)n(C2CCCCC2)n1	6.21	80	6.74	55%	–	–	–	–	–
Cc1cc(NC(=O)Cn2nncc2-c2ccccc2)n(C2CCCCC2)n1	5.99	87	6.43	49%	0.4	Unstable	87.7	18.3	–
Cc1cc(NC(=O)Cc2ccc(-c3ccc(Cl)c(Cl)c3)cc2)n(C2CCCCC2)n1	5.36	49	5.35	11%	–	–	–	–	–
Cc1cc(NC(=O)Cc2ccc(-c3ccccc3)cn2)n(C2CCCCC2)n1	–	36	5.82	inactive	–	–	–	–	Not Active
Cc1cc(NC(=O)Cc2cccc(-c3ccccc3)c2)n(C2CCCCC2)n1	< 5.40	72	6.43	> 51%	–	–	–	–	–
Cc1cc(NC(=O)Cn2nnc(-c3ccc(C(F)(F)F)cc3)n2)n(C2CCCCC2)n1	6.35	94	6.62	50%	–	–	–	–	–
CC1(c2cc(NC(=O)Cn3nnc(-c4ccccc4)n3)n(C3CCCCC3)n2)CC1	–	> 10	< 5.00	inactive	–	–	–	–	Not Active
Cc1cc(NC(=O)Cn2nnc(-c3cccc(F)n3)n2)n(C2CCCCC2)n1	< 5.00	> 83	< 5.52	> 38%	–	–	–	–	–
Cc1cc(NC(=O)Cn2nnc(-c3ccccc3)n2)n(C2CCOCC2)n1	5.69	115	6.36	109%	–	–	–	–	–
Cc1cc(NC(=O)Cc2coc(-c3ccccc3)n2)n(C2CCCCC2)n1	5.40	> 69	< 4.96	22%	–	–	–	–	–
Cc1cc(NC(=O)Cc2ncc(-c3ccccc3)o2)n(C2CCCCC2)n1	5.95	72	6.20	27%	–	–	–	–	–
Cc1cc(NC(=O)Cn2nnc(-c3ccccn3)n2)n(C2CCCCC2)n1	< 4.48	81	4.84	> 41%	–	–	–	–	–
O=C(Cn1nnc(-c2ccccc2)n1)Nc1cc(C2CC2)nn1C1CCCCC1	6.18	45	6.57	15%	–	–	–	–	–

Structure (SMILES)	pEC50 (Kir3.1/Kir3.4 [1])	Emax [2] [%]	pEC50 (Kir3.1/Kir3.2)	Emax [3]	Fu [4] [%]	Stability [5]	CLhep predicted [6] [mL/min/kg]	CLhep predicted [7] [mL/min/kg]	EC50 (Kir3.1/Kir3.4 [8])
Cc1cc(NC(=O)Cn2nnc(-c3ccnc(F)c3)n2)n(C2CCCCC2)n1	5.87	95	6.36	68%	–	–	–	–	–
Cc1cc(NC(=O)Cn2nnc(-c3ccccc3)n2)n(C2CCS(=O)(=O)CC2)n1	–	> 25	< 5.00	inactive	–	–	–	–	Not Active
Cc1cc(NC(=O)Cn2nnc(-c3ccccc3)n2)n(C2CC2)n1	< 5.00	> 78	< 5.30	> 39%	–	–	–	–	–
Cc1cc(NC(=O)Cn2nnc(-c3ccccc3F)n2)n(C2CCCCC2)n1	6.35	88	6.73	60%	–	–	–	–	–
Cc1cc(NC(=O)Cn2nnc(-c3ccccc3)n2)n(C2CCC(C)(C)CC2)n1	–	> 19	< 6.66	inactive	–	–	–	–	Not Active
Cc1cc(NC(=O)Cn2nnc(-c3ccc(F)cc3)n2)n(C2CCCCC2)n1	6.20	92	6.74	74%	–	–	–	–	–
Cc1cc(NC(=O)Cn2nnc(C3CC3)n2)n(C2CCCCC2)n1	< 5.00	> 68	< 5.52	> 25%	–	–	–	–	–
COc1cccc(-c2nnn(CC(=O)Nc3cc(C)nn3C3CCCCC3)n2)c1	6.52	76	6.93	40%	–	–	–	–	–
Cc1cccc(-c2nnn(CC(=O)Nc3cc(C)nn3C3CCCCC3)n2)c1	6.36	93	6.89	63%	–	–	–	–	–
Cc1cc(NC(=S)Cn2nnc(-c3ccccc3)n2)n(C2CCCCC2)n1	5.90	80	6.21	36%	< 0.06	Unstable	–	18.9	–
Cc1cc(NC(=O)Cc2ccc(-c3ccccc3)cc2)n(C2CCCCC2)n1	5.74	69	5.78	20%	–	–	–	–	–
Cc1cc(NC(=O)Cn2nnc(-c3ccccc3)n2)n(C2CCCC2)n1	6.21	105	6.79	84%	–	–	–	–	–
Cc1cc(NC(=O)Cn2nnc(-c3cccc(C(F)(F)F)c3)n2)n(C2CCCCC2)n1	6.07	86	6.74	57%	–	–	–	–	–
Cc1cc(NC(=O)Cn2nnc(-c3cccnc3)n2)n(C2CCCCC2)n1	5.31	96	5.71	80%	–	–	–	–	–
COc1ccc(-c2nnn(CC(=O)Nc3cc(C)nn3C3CCCCC3)n2)cc1	6.11	90	6.76	65%	–	–	–	–	–
CC1CC1c1cc(NC(=O)Cn2nnc(-c3ccccc3)n2)n(C2CCCCC2)n1 (stereo not given)	< 5.00	78	6.07	> 19%	–	–	–	–	–
Cc1cc(NC(=O)Cn2nnc(-c3ccccc3)n2)n(CC(F)(F)F)n1	< 5.00	> 105	< 5.22	> 97%	–	–	–	–	–
Cc1cc(NC(=O)Cn2nnc(-c3cc(Cl)cc(Cl)c3)n2)n(C2CCCCC2)n1	5.67	82	6.01	51%	–	–	–	–	–
Cc1cc(NC(=O)Cc2csc(-c3ccccc3)n2)n(C2CCCCC2)n1	< 5.52	44	5.88	> 18%	–	–	–	–	–
CCC(C)n1nc(C)cc1NC(=O)Cn1nnc(-c2ccccc2)n1 (stereo not given)	< 5.00	> 69	< 5.30	> 20%	–	–	–	–	–
Cc1ccc(-c2nnn(CC(=O)Nc3cc(C)nn3C3CCCCC3)n2)cc1	6.39	86	6.95	64%	–	–	–	–	–
